According to patent US20050142537A1, “System and method for rapid detection of metabolic deviations of a biological sample” (priority 2003, published 2005):

System: E. coli
Experiment: Impedance-based rapid detection of metabolic deviations (sensitivity testing) of a biological sample containing E. coli
Assay type: cell-based
Description: There is shown in FIG. 1, system 10 for rapid detection of metabolic deviations of a biological sample of this invention. System 10 includes control chamber 12 which receives biological sample 14 via fluidic channel 15. Control chamber 12 also includes spaced electrodes 16 and 18 which are used to measure the impedance of biological sample 14 disposed in control chamber 12, as discussed in further detail below. Biological sample 14 may be blood, urine, sputum, feces, spinal fluid, food, water, a solution containing one or more microbial organisms, or any other biological sample known to those skilled in the art. The microbial organisms in biological sample 14 may include any biological cell, such as Escherichia coli, Staphylococcus aureus, Enterococcus faecalis, Streptococcus pneumoniae, Neisseria gonorrhoeae, Mycobacterium tuberculosis, Saccharomyces cerevisiae, or any other microbial organism known to those skilled in the art. […]
System 10 includes measuring and detection device 28 connected to electrodes 16 and 18 of control chamber 12 by lines 29 and 31 and electrodes 24 and 26 of target chamber 22 by lines 33 and 35. […] Measuring and detection device 28 then compares the measured second impedances to the measured first impedances to determine if biological reagent 20 has induced any metabolic deviations to biological sample 14 in target chamber 22. […]

For `CCn1cc(C(=O)O)c(=O)c2cc(F)c(N3CCNCC3)cc21` [Norfloxacin], the “time at which sensitivity of the biological sample to the biological reagent is detected” value (FIG. 7 dashed line 404) was “about 40 minutes” and the “sensitivity of the biological sample to the biological reagent” value (measured impedance response vs control sample, FIG. 7 curve 402 vs curve 400) was “sensitive”.
